Test results from PubChem BioAssay AID2060335 (Molecular Pharmacology Branch, DTP, NCI, 2025).

System: DU-145 multicell spheroids with HUVEC/MSC, viability
Test: Anticancer human tumor DU-145 cell line growth inhibition [IpAb];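 note: spheroids exposed to agents for seven days before measurement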;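 for viability, T/C: percent of DMSO vehicle control viability so 100% = untreated level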
Settings: for IC50: curve of first compound; for viability, T/C: stronger effect = lower value
How it was run: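 Spheroids of 60% malignant cells, 25% HUVEC and 15% MSC were exposed to targeted agents combined with ipatasertib or abemaciclib. Doses started at or near clinical Cmax (10 microM when unknown) and fell in half-log steps.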

[1] = second compound 0.01 µM, first compound 0.0316 µM
[2] = second compound 0.01 µM, first compound 0.1 µM
[3] = second compound 0.01 µM, first compound 0.316 µM
[4] = second compound 0.01 µM, first compound 1 µM
[5] = second compound 0.01 µM, first compound 3.16 µM
[6] = second compound 0.01 µM, first compound 10 µM
[7] = second compound 0.0316 µM, first compound 0.0316 µM
[8] = second compound 0.0316 µM, first compound 0.1 µM
[9] = second compound 0.0316 µM, first compound 0.316 µM
[10] = second compound 0.0316 µM, first compound 1 µM
[11] = second compound 0.0316 µM, first compound 3.16 µM
[12] = second compound 0.0316 µM, first compound 10 µM
[13] = second compound 0.1 µM, first compound 0.0316 µM
[14] = second compound 0.1 µM, first compound 0.1 µM
[15] = second compound 0.1 µM, first compound 0.316 µM
[16] = second compound 0.1 µM, first compound 1 µM
[17] = second compound 0.1 µM, first compound 3.16 µM
[18] = second compound 0.1 µM, first compound 10 µM
[19] = second compound 0.316 µM, first compound 0.0316 µM
[20] = second compound 0.316 µM, first compound 0.1 µM
[21] = second compound 0.316 µM, first compound 0.316 µM
[22] = second compound 0.316 µM, first compound 1 µM
[23] = second compound 0.316 µM, first compound 3.16 µM
[24] = second compound 0.316 µM, first compound 10 µM
[25] = second compound 1 µM, first compound 0.0316 µM
[26] = second compound 1 µM, first compound 0.1 µM
[27] = second compound 1 µM, first compound 0.316 µM
[28] = second compound 1 µM, first compound 1 µM
[29] = second compound 1 µM, first compound 3.16 µM
[30] = second compound 1 µM, first compound 10 µM

SMILES | IC50 (second compound 0.01 µM) | IC50 (second compound 0.0316 µM) | IC50 (second compound 0.1 µM) | IC50 (second compound 0.316 µM) | IC50 (second compound 1 µM) | viability, T/C [1] | viability, T/C [2] | viability, T/C [3] | viability, T/C [4] | viability, T/C [5] | viability, T/C [6] | viability, T/C [7] | viability, T/C [8] | viability, T/C [9] | viability, T/C [10] | viability, T/C [11] | viability, T/C [12] | viability, T/C [13] | viability, T/C [14] | viability, T/C [15] | also measured
Cc1nc(NC(=O)N2CCCC2C(N)=O)sc1-c1ccnc(C(C)(C)C(F)(F)F)c1 (stereo not given) + CCN1CCN(Cc2ccc(Nc3ncc(F)c(-c4cc(F)c5nc(C)n(C(C)C)c5c4)n3)nc2)CC1 | 186 nM | 116 nM | 97.3 nM | 94.1 nM | 168 nM | 75.3% | 59.4% | 39.9% | 31.5% | 19.4% | 9.2% | 73.5% | 45.8% | 38% | 29.5% | 19.2% | 8.68% | 67.1% | 49.2% | 33.8% | viability, T/C [16]: 28.6%; viability, T/C [17]: 20.5%; viability, T/C [18]: 11%; viability, T/C [19]: 61%; viability, T/C [20]: 49.7%; viability, T/C [21]: 36.8%; viability, T/C [22]: 32.4%; viability, T/C [23]: 24.1%; viability, T/C [24]: 16%; viability, T/C [25]: 58.1%; viability, T/C [26]: 55%; viability, T/C [27]: 43.8%; viability, T/C [28]: 39%; viability, T/C [29]: 28.4%; viability, T/C [30]: 21.5%
Cn1nccc1Nc1nccc(-c2ccn(C(CO)c3ccc(Cl)c(F)c3)c(=O)c2)n1 (stereo not given) + CCN1CCN(Cc2ccc(Nc3ncc(F)c(-c4cc(F)c5nc(C)n(C(C)C)c5c4)n3)nc2)CC1 | > 10000 nM | 7220 nM | > 10000 nM | > 10000 nM | > 10000 nM | 86.9% | 68.4% | 71% | 85.6% | 103% | 82.1% | 85.4% | 64.7% | 69.8% | 82.5% | 105% | 37.7% | 65.2% | 60.4% | 63.5% | viability, T/C [16]: 75.1%; viability, T/C [17]: 92.6%; viability, T/C [18]: 53.6%; viability, T/C [19]: 67.1%; viability, T/C [20]: 60.7%; viability, T/C [21]: 61.9%; viability, T/C [22]: 77%; viability, T/C [23]: 79.1%; viability, T/C [24]: 54.8%; viability, T/C [25]: 66.4%; viability, T/C [26]: 68.2%; viability, T/C [27]: 61.5%; viability, T/C [28]: 73.5%; viability, T/C [29]: 90.2%; viability, T/C [30]: 64.3%
